Experimental data reported in publication PMC4385830, “Group I Paks as therapeutic targets in NF2-deficient meningioma” (Oncotarget, 2015).

How the values were obtained:
Pak1 [1] = target: T1, Pak1 (Homo sapiens, UniProt Q13153); assay: Pak1 inhibition in vitro; format: biochemical; conditions: read-out: IC50 values towards Pak1
[2] = tested on: KT21-MG1-Luc5D intracranial xenografts; assay: Orthotopic meningioma model, bioluminescence imaging; conditions: for loss of body weight compared with control littermates: SCID mice bearing KT21
Description: Eight-week-old SCID mice were anesthetized with ketamine and their heads were stabilized in a small animal stereotaxic instrument. A midline sagittal incision was made on the cranial skin. A burr hole was drilled in the skull with coordinated 1.5 mm anterior and 1.5 mm lateral to the right from the bregma and a 5-μl Hamilton syringe loaded with cells was slowly inserted through the burr hole and ~0.5 mm downward to the skull base. The incision was closed using surgical absorbable gut suture.
Mice transplanted with meningioma cells were imaged using Xenogen IVIS Spectrum (Caliper, MA). Mice were injected intraperitoneally with Rediject D-Luciferin Ultra at 150 mg/kg under anesthetized with isofluorane. Luciferase activity was measured and all bioluminescence imaging was conducted when perk signal was reached. Once tumors were established (~3 weeks post-transplantation), mice were divided into groups for shRNA studies or drug treatments.
For drugs treatment, mice were dosed with Pak inhibitors daily for 14–21 days and tumor growth was monitored every week by BLI. Mean luminescence for each treatment groups (n = 5) was calculated as described previously.

AKT2 (PKB beta) = target: T2, AKT2 (PKB beta) (Homo sapiens, UniProt P31751); assay: Kinase selectivity, Z'-LYTE; format: biochemical
T2 construct: purchased Invitrogen (Life Technologies) SelectScreen Z'-LYTE
Outline: (§1)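 Coupled-enzyme fluorescence assay run on recombinant kinases, conditions optimized individually per kinase; phosphorylation detected by resistance of the peptide to proteolytic cleavage.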

G3K3B (G3K3 beta) = target: T3, G3K3B (G3K3 beta) (Homo sapiens, UniProt P49841); assay: Kinase selectivity, Z'-LYTE; format: biochemical
T3 construct: purchased Invitrogen (Life Technologies) SelectScreen Z'-LYTE
Outline: as §1

AMPKA1/B1/G1 = target: T4, AMPKA1/B1/G1 (Homo sapiens, UniProt Q13131); assay: Kinase selectivity, Z'-LYTE; format: biochemical
T4 construct: purchased Invitrogen (Life Technologies) SelectScreen Z'-LYTE
Outline: as §1

ABL2 (Arg) = target: T5, ABL2 (Arg) (Homo sapiens, UniProt P42684); assay: Kinase selectivity, Z'-LYTE; format: biochemical
T5 construct: purchased Invitrogen (Life Technologies) SelectScreen Z'-LYTE
Outline: as §1

RET = target: T6, RET (Homo sapiens, UniProt P07949); assay: Kinase selectivity, Z'-LYTE; format: biochemical
T6 construct: purchased Invitrogen (Life Technologies) SelectScreen Z'-LYTE
Outline: as §1

Pak1 [3] = target: T1, Pak1; assay: Kinase selectivity, Z'-LYTE; format: biochemical
Outline: as §1

CDK6/p25 = target: T7, CDK6/p25 (Homo sapiens, UniProt Q00535); assay: Kinase selectivity, Z'-LYTE; format: biochemical
T7 construct: purchased Invitrogen (Life Technologies) SelectScreen Z'-LYTE
Outline: as §1

YES1 = target: T8, YES1 (Homo sapiens, UniProt P07947); assay: Kinase selectivity, Z'-LYTE; format: biochemical
T8 construct: purchased Invitrogen (Life Technologies) SelectScreen Z'-LYTE
Outline: as §1

ADRBK1 (GRK2) = target: T9, ADRBK1 (GRK2) (Homo sapiens, UniProt P25098); assay: Kinase selectivity, Z'-LYTE; format: biochemical
T9 construct: purchased Invitrogen (Life Technologies) SelectScreen Z'-LYTE
T9 sequence (P25098 1-689): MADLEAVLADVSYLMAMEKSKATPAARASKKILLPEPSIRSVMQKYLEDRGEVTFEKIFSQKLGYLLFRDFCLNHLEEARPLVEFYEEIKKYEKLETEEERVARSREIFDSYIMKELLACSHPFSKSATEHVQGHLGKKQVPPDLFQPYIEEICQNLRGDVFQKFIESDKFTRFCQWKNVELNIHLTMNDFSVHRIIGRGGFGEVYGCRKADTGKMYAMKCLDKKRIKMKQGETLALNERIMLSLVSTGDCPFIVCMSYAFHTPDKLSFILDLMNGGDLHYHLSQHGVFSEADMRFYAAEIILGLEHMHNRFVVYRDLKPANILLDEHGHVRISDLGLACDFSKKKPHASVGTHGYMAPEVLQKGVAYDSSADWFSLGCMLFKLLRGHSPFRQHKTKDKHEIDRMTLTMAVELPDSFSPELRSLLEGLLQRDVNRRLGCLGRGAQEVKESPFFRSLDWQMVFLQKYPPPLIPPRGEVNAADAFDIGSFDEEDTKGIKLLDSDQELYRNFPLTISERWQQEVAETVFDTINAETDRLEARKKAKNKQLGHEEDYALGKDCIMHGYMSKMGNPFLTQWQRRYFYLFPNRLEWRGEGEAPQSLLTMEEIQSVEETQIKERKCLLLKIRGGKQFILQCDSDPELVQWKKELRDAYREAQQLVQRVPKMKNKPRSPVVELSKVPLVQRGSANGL
Outline: as §1

PRKCQ (PKC theta) = target: T10, PRKCQ (PKC theta) (Homo sapiens, UniProt Q04759); assay: Kinase selectivity, Z'-LYTE; format: biochemical
T10 construct: purchased Invitrogen (Life Technologies) SelectScreen Z'-LYTE
Outline: as §1

CDK2/cyclin A = target: T11, CDK2/cyclin A (Homo sapiens, UniProt P24941); assay: Kinase selectivity, Z'-LYTE; format: biochemical
T11 construct: purchased Invitrogen (Life Technologies) SelectScreen Z'-LYTE
Outline: as §1

NTRK1 (TRKA) = target: T12, NTRK1 (TRKA) (Homo sapiens, UniProt P04629); assay: Kinase selectivity, Z'-LYTE; format: biochemical
T12 construct: purchased Invitrogen (Life Technologies) SelectScreen Z'-LYTE
Outline: as §1

IGF1R = target: T13, IGF1R (Homo sapiens, UniProt P08069); assay: Kinase selectivity, Z'-LYTE; format: biochemical
T13 construct: purchased Invitrogen (Life Technologies) SelectScreen Z'-LYTE
Outline: as §1

DYRK1B = target: T14, DYRK1B (Homo sapiens, UniProt Q9Y463); assay: Kinase selectivity, Z'-LYTE; format: biochemical
T14 construct: purchased Invitrogen (Life Technologies) SelectScreen Z'-LYTE
Outline: as §1

AMPKA2/B1/G1 = target: T15, AMPKA2/B1/G1 (Homo sapiens, UniProt P54646); assay: Kinase selectivity, Z'-LYTE; format: biochemical
T15 construct: purchased Invitrogen (Life Technologies) SelectScreen Z'-LYTE
Outline: as §1

RSK3 = target: T16, RSK3 (Homo sapiens, UniProt Q15349); assay: Kinase selectivity, Z'-LYTE; format: biochemical
T16 construct: purchased Invitrogen (Life Technologies) SelectScreen Z'-LYTE
Outline: as §1

RSK4 = target: T17, RSK4 (Homo sapiens, UniProt Q9UK32); assay: Kinase selectivity, Z'-LYTE; format: biochemical
T17 construct: purchased Invitrogen (Life Technologies) SelectScreen Z'-LYTE
Outline: as §1

KT21 cells = assay: Immunoblot of signaling pathways; format: cell-based
Procedure: Protein concentration was determined, and equal amount of total proteins were separated by SDS-PAGE. Antibodies used included those for Pak1 (2602), Pak2 (2608), Pak3 (2609), Pak4 (3242), phospho-Pak4-6 (3241), Mek1 (9122), Erk (9102), phospho-Erk1/2 (pThr202/pTyr204; 9101), Akt (9272), phospho-Akt (pThr308; 9275), S6 (2217), phospho-S6 (pSer235/pSer236; 4857), phospho-β-Catenin (pSer675; 4176), and cyclin D1 (2978) from Cell Signaling Technology; β-Catenin (610154) from BD Transduction Laboratories; and phospho-Pak (Ser141; 44940G) and phospho-Mek (Ser298; 44460G) from Invitrogen. GAPDH and β-actin were used as loading control.

T13 sequence (P08069 31-1367): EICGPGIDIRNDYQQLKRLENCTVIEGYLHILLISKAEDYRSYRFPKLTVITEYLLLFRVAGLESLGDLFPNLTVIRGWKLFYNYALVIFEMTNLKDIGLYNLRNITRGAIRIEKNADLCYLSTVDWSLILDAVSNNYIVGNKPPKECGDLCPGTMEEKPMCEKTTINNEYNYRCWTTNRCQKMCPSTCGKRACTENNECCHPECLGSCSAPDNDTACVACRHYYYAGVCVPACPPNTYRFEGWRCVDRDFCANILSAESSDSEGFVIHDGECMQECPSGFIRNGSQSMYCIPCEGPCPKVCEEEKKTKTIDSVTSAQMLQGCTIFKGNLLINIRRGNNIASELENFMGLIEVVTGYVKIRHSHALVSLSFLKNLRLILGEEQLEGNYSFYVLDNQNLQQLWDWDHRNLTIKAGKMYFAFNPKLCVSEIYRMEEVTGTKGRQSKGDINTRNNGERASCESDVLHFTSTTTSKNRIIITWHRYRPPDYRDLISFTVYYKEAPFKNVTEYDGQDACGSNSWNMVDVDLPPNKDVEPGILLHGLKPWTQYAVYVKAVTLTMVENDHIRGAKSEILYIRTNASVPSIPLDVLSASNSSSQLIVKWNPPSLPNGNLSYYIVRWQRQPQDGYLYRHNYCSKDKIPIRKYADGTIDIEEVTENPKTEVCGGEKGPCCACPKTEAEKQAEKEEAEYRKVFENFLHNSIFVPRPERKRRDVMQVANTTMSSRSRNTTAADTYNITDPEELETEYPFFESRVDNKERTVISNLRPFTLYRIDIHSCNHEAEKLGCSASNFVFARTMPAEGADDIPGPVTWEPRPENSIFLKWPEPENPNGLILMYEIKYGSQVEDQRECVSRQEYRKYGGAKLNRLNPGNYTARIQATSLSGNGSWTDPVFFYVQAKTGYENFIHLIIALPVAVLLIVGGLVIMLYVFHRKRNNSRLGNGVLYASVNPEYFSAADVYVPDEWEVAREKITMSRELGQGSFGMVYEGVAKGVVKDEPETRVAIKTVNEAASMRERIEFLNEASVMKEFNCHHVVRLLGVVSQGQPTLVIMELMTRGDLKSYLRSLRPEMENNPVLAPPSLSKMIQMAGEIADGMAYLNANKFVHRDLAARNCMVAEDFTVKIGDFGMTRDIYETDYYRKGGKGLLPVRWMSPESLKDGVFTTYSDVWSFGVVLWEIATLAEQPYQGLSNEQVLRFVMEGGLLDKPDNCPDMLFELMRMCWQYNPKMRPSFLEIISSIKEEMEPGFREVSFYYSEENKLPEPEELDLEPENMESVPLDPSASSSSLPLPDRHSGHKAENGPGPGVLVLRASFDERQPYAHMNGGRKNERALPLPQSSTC
T10 sequence (Q04759 whole entry): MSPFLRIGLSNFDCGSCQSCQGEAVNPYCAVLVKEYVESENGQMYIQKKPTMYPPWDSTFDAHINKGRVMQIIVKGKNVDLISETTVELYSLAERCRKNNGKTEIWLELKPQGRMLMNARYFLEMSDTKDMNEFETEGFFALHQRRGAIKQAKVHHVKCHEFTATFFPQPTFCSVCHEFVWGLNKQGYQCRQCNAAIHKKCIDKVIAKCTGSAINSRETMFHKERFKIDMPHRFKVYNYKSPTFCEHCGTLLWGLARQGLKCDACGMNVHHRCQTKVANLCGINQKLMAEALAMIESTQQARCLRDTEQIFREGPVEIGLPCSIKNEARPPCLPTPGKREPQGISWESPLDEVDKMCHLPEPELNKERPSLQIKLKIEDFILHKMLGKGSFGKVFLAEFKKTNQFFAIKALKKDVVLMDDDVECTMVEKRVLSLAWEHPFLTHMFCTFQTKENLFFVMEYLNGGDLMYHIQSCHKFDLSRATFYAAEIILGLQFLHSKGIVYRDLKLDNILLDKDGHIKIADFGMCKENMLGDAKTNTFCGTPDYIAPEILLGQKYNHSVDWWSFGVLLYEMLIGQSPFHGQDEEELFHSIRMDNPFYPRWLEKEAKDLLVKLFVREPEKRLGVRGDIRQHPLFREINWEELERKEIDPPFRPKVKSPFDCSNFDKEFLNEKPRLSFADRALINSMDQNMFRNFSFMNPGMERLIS
T1 sequence (Q13153 whole entry): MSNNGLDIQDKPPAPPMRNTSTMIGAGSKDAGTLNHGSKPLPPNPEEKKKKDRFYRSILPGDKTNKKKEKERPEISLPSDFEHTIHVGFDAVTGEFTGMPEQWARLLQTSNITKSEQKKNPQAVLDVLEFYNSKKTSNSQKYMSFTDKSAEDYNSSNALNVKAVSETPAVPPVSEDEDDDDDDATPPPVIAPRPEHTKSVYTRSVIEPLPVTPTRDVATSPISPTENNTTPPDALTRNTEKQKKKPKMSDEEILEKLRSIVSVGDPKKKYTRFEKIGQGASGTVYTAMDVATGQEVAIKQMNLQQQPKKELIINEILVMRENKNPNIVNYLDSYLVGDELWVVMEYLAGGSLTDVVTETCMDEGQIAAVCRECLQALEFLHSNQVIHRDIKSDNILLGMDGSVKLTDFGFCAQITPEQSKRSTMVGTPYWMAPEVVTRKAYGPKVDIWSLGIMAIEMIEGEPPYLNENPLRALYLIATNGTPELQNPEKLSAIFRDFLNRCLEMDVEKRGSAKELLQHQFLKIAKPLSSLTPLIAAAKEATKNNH
T8 sequence (P07947 whole entry): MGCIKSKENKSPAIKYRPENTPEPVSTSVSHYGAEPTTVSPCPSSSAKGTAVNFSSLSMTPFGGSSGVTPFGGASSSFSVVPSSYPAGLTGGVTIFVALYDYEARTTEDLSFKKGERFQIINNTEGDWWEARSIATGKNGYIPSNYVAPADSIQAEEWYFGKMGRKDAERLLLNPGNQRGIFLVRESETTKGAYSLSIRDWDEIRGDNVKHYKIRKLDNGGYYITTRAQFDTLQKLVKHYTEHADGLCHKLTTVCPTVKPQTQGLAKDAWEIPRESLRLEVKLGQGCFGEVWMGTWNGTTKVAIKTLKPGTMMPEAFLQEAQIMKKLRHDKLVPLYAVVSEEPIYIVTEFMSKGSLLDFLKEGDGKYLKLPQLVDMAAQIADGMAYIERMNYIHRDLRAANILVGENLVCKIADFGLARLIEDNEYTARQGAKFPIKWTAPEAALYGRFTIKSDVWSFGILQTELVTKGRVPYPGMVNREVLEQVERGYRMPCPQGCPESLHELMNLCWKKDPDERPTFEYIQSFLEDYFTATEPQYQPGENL
T3 sequence (P49841 whole entry): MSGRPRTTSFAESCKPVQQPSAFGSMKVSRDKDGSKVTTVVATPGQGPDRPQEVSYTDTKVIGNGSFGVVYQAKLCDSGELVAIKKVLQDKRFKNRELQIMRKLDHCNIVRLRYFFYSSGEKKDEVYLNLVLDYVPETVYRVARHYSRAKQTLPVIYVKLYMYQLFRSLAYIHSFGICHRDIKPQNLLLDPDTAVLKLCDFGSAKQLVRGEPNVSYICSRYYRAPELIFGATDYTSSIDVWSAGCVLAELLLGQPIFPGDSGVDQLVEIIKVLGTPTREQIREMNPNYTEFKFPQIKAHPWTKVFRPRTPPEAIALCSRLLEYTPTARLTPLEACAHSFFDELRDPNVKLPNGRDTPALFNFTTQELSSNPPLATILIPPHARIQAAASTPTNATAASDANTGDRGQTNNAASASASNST
T15 sequence (P54646 whole entry): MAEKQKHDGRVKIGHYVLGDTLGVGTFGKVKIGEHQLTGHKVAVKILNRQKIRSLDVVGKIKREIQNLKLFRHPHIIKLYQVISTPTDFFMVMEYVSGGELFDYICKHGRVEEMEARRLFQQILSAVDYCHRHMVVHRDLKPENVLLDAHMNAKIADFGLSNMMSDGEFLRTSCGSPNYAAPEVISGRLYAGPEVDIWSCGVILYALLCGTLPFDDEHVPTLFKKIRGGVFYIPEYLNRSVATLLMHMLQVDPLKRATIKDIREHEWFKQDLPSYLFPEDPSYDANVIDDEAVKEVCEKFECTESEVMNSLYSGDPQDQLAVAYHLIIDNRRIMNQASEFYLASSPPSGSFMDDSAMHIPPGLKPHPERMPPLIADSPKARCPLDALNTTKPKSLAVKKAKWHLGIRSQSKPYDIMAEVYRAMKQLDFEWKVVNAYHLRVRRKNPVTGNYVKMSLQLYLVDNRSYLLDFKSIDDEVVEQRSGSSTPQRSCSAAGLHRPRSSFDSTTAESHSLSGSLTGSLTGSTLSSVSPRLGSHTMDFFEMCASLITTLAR
T15 sequence (Q9Y478 whole entry partner): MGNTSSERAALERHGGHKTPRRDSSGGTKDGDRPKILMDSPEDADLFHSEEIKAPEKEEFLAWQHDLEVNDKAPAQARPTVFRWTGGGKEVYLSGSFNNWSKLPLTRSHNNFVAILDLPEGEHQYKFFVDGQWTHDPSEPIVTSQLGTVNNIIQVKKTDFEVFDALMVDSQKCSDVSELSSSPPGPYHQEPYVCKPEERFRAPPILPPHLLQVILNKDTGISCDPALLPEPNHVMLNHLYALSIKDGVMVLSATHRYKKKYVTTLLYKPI
T15 sequence (P54619 whole entry partner): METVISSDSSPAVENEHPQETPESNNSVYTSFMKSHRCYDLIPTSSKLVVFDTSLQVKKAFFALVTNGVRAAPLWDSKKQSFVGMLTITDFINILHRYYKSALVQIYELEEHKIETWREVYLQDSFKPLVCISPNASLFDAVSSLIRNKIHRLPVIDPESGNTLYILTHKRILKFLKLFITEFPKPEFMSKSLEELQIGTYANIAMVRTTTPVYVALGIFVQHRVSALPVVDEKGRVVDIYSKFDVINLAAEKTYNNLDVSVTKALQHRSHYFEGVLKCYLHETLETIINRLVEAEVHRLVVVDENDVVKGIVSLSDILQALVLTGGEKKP

| Structure (SMILES) | % inhibition of activity (AKT2 (PKB beta)) [%] | % inhibition of activity (G3K3B (G3K3 beta)) [%] | % inhibition of activity (AMPKA1/B1/G1) [%] | % inhibition of activity (ABL2 (Arg)) [%] | % inhibition of activity (RET) [%] | % inhibition of activity (Pak1 [3]) [%] | % inhibition of activity (CDK6/p25) [%] | % inhibition of activity (YES1) [%] | % inhibition of activity (ADRBK1 (GRK2)) [%] | % inhibition of activity (PRKCQ (PKC theta)) [%] | % inhibition of activity (CDK2/cyclin A) [%] | % inhibition of activity (NTRK1 (TRKA)) [%] | % inhibition of activity (IGF1R) [%] | % inhibition of activity (DYRK1B) [%] | % inhibition of activity (AMPKA2/B1/G1) [%] | other results |
| --- | --- | --- | --- | --- | --- | --- | --- | --- | --- | --- | --- | --- | --- | --- | --- | --- |
| CCn1c(=O)c(-c2ccc(-c3noc(C)n3)cc2Cl)cc2cnc(Nc3ccc(C4CCN(C)CC4)cc3)nc21 [Frax716] | 9 | 14 | 13 | 82 | 91 | 95 | 3 | 89 | 10 | 12 | 0 | 92 | 23 | 13 | 29 | IC50 (Pak1 [1]): 2 nM; loss of body weight compared with control littermates ([2]; oral gavage 20 mg/kg/day): > 10%; reduction on bioluminescence ([2]; SCID mice, KT21, oral gavage 20 mg/kg/day, 2 weeks, P = 0.028): 60% |
| CCn1c(=O)c(-c2ccc(-c3cncc(C)n3)cc2Cl)cc2cnc(NCCC3CCN(C)CC3)nc21 [Frax1036] | – | 0 | – | – | 8 | – | – | 18 | 0 | 24 | −14 | – | 7 | – | – | loss of body weight compared with control littermates ([2]; Frax597 90 mg/kg/day, Frax1036 30 mg/kg/day, oral gavage): not seen; reduction in BMI signals ([2]; SCID mice, KT21, oral gavage 30 mg/kg/day, 2 weeks, P = 0.042): 37%; % inhibition of activity (RSK3): 26%; % inhibition of activity (RSK4): 9% |
| Cc1nc(Nc2[nH]nc3c2CN(C(=O)N[C@H](CN(C)C)c2ccccc2)C3(C)C)c2sccc2n1 [PF3758309, reference compound] | 0 | 77 | 100 | 77 | – | 100 | 18 | 86 | 10 | 97 | – | 73 | 10 | 7 | 100 | total and phospho-protein levels of β-catenin (KT21 cells): only reduction on phosphorylation status |
